Among the data in patent US10815222B2, “Compounds for use in the treatment of kinetoplastid infection” (C.N.C.C.S. S.c.a.r.l. COLLEZIONE NAZIONALE DEI COMPOSTI …, priority 2016, dated 2020) are EC50 values, retold here.

A value given as a limit tells only on which side of the number the result lay.

A word on the EC50: it is the concentration needed to bring the measured effect to its halfway point.

The subject of the first experiment is Bloodstream form of Trypanosoma brucei, strain Lister 427. Nature of the experiment: Trypanosoma brucei growth inhibition assay (CellTiter-Glo, 24 h). The format is cell-based. To be noted: Trypanosoma brucei, read-out: T. Brucei GI EC50. The procedure: Bloodstream form of Trypanosoma brucei, strain Lister 427 (provided by Prof. Miguel Navarro, Instituto de Parasitologia y Biomedicina “Lopez-Neyra” Avda. Conocimiento S/N Parque Tecnologico Ciencias de la Salud—Spain; ref. Navarro M. and Cross G. A. M. Molecular and Cellular Biology, 1996, Vol. 16, No. 7, pp. 3615-3625) were grown in IMDM Iscove's Modified Dulbecco's Medium (SIGMA #17633) supplemented with: 3.024 g/l sodium bicarbonate, hypoxanthine 1 mM, thymidine 0.16 mM, bathocuprione sulfonic acid 0.05 mM, cysteine 1.5 mM, ß-mercaptoethanol […] and 10% foetal bovine serum (heat-inactivated at 56° C. for 30 min). Parasites were grown at 37° C. in flasks with vented caps in a 5% CO2 incubator to a maximum cell density of about 2×10^6/ml and diluted every two-three days.
The compounds of the invention were dissolved in DMSO and transferred to assay plates by acoustic droplet ejection (ATS-100, EDC Biosystems, USA) in order to obtain an appropriate concentration and to keep the concentration of DMSO below or equal to 0.25% in the final assay volume of 30 μL. 1500 parasites resuspended in 30 μL of culture medium were then transferred to each well of a 384-well plate.
After an incubation period of 24 hours at 37° C., each well is added 15 μl of CellTiter-Glo® Reagent (Promega) and incubated at room temperature. 5-10 min post incubation, the plate is read using a luminometer (ViewLux®). A known inhibitor of the growth of T. brucei was used as the reference positive control.
Turning to `CCC(=O)CCCN1CCN(C(=O)Oc2ccccc2)C(c2ncc(-c3ccc4ccccc4c3)[nH]2)C1` (stereo not drawn) [phenyl 2-(5-(naphthalen-2-yl)-1H-imidazol-2-yl)-4-(4-oxohexyl)piperazine-1-carboxylate], the EC50 lay within 1010 to 5000 nM.

Still in this experiment, the particulars now being: Trypanosoma brucei; T. Brucei Growth Inibition Assay, class symbols; read-out: T. Brucei GI EC50.
As to `CCCCCCN1CCN(C(=O)Cc2cn(C)c3ccccc23)C(c2ncc(-c3ccc4ccccc4c3)[nH]2)C1` (stereo not drawn), the EC50 lay in the range of 1010 to 5000 nM.

`COc1ccc2nc(C(F)(F)F)n(CC(=O)N3CCN(Cc4ncnn4C)C[C@H]3c3ncc(-c4cc5ccccc5nc4OC)[nH]3)c2c1` [(S)-2-(6-methoxy-2-(trifluoromethyl)-1H-benzo[d]imidazol-1-yl)-1-(2-(5-(2-methoxyquinolin-3-yl)-1H-imidazol-2-yl)-4-((1-methyl-1H-1,2,4-triazol-5-yl)methyl)piperazin-1-yl)ethan-1-one]: the EC50 was 100 to 500 nM.

In the case of `COc1nc2ccccc2cc1-c1cnc(C2COCCN2C(=O)Cn2nc(C)c3ccccc3c2=O)[nH]1` (stereo not drawn), the EC50 fell in the range of 1010 to 5000 nM.

Consider `COc1ccc2nc(C)n(CC(=O)N3CCN(CC4CCOC4)C[C@H]3c3ncc(C#Cc4ccccn4)[nH]3)c2c1` (stereo partly drawn) [2-(6-methoxy-2-methyl-1H-benzo[d]imidazol-1-yl)-1-((2S)-2-(5-(pyridin-2-ylethynyl)-1H-imidazol-2-yl)-4-((tetrahydrofuran-3-yl)methyl)piperazin-1-yl)ethan-1-one], for which the EC50 lay within 1010 to 5000 nM.

As for `COc1ccc(CC(=O)N2CCN(C)CC2c2ncc(-c3ccc4ccccc4c3)[nH]2)cc1` (stereo not drawn), the EC50 lay in the range of 1010 to 5000 nM.

As for `COc1nc2ccccc2cc1-c1cnc(C2CN(C3CCS(=O)(=O)CC3)CCN2C(=O)Cc2c(C)[nH]c3ccc(F)cc23)[nH]1` (stereo not drawn), the half-maximal effective concentration (EC50) lay within 100 to 500 nM.

With `COc1nc2ccccc2cc1-c1cnc([C@@H]2CN(Cc3ncco3)CCN2C(=O)Cn2c(C(F)(F)F)nc3ccccc32)[nH]1` [(S)-1-(2-(5-(2-methoxyquinolin-3-yl)-1H-imidazol-2-yl)-4-(oxazol-2-ylmethyl)piperazin-1-yl)-2-(2-(trifluoromethyl)-1H-benzo[d]imidazol-1-yl)ethan-1-one], the EC50 is under 100 nM.

Consider `COc1ccc2nc(C(F)(F)F)n(CC(=O)N3CC[C@H](NCC4CCOC4)C[C@H]3c3ncc(-c4cc5ccccc5nc4OC)[nH]3)c2c1` (stereo partly drawn) [2-(6-methoxy-2-(trifluoromethyl)-1H-benzo[d]imidazol-1-yl)-1-((2S,4S)-2-(5-(2-methoxyquinolin-3-yl)-1H-imidazol-2-yl)-4-(((tetrahydrofuran-3-yl)methyl)amino)piperidin-1-yl)ethan-1-one], for which the EC50 is under 100 nM.

On to `CCC(=O)CCCN1CCN(S(=O)(=O)c2ccc3ccccc3c2)C(c2ncc(-c3ccc4ccccc4c3)[nH]2)C1` (stereo not drawn), for which the EC50 was in the range of 1010 to 5000 nM.

In the case of `Cn1cc(CC(=O)N2CCN(Cc3ccccc3)CC2c2ncc(-c3ccc4ccccc4c3)[nH]2)c2ccccc21` (stereo not drawn), the EC50 is 1010 to 5000 nM.

For the compound `COc1ccc2c(c1)C(CC(=O)N1CCN(CC3CCOC3)CC1c1ncc(-c3cc4ccccc4nc3OC)[nH]1)C(=O)N2` (stereo not drawn), the EC50 is 1010 to 5000 nM.

On to `COc1nc2ccccc2cc1-c1cnc([C@@H]2CN(Cc3cscn3)CCN2C(=O)Cn2c(C(F)(F)F)nc3ccccc32)[nH]1` [(S)-1-(2-(5-(2-methoxyquinolin-3-yl)-1H-imidazol-2-yl)-4-(thiazol-4-ylmethyl)piperazin-1-yl)-2-(2-(trifluoromethyl)-1H-benzo[d]imidazol-1-yl)ethan-1-one], for which the concentration for a half-maximal effect (EC50) was under 100 nM.

`COc1ccc2nc(C)n(CC(=O)N3CCN(Cc4nccs4)CCC3c3ncc(-c4cc5ccccc5nc4OC)[nH]3)c2c1` (stereo not drawn) [2-(6-methoxy-2-methyl-1H-benzo[d]imidazol-1-yl)-1-(7-(5-(2-methoxyquinolin-3-yl)-1H-imidazol-2-yl)-4-(thiazol-2-ylmethyl)-1,4-diazepan-1-yl)ethan-1-one]: the EC50 was under 100 nM.

Turning to `COc1ccc2cc(C)n(CC(=O)N3CCCCC3c3ncc(-c4cc5ccccc5nc4OC)[nH]3)c2c1` (stereo not drawn), the EC50 is 100 to 500 nM.

In the case of `CCC(=O)CCCN1CCN(C(=O)Nc2ccccc2)C(c2ncc(-c3ccc4ccccc4c3)[nH]2)C1` (stereo not drawn) [2-(5-(naphthalen-2-yl)-1H-imidazol-2-yl)-4-(4-oxohexyl)-N-phenylpiperazine-1-carboxamide], the EC50 was 1010 to 5000 nM.

In the case of `COc1nc2ccccc2cc1-c1cnc([C@@H]2CN(CC3CCOC3)CCN2C(=O)Cn2c(C)nc3cncnc32)[nH]1` (stereo partly drawn), the EC50 lay in the range of 100 to 500 nM.

`COc1nc2ccccc2cc1-c1cnc(C2CN(S(=O)(=O)N(C)C)CCN2C(=O)Cc2c(C)[nH]c3ccc(F)cc23)[nH]1` (stereo not drawn) [4-(2-(5-fluoro-2-methyl-1H-indol-3-yl)acetyl)-3-(5-(2-methoxyquinolin-3-yl)-1H-imidazol-2-yl)-N,N-dimethylpiperazine-1-sulfonamide]: the EC50 lay within 1010 to 5000 nM.

Regarding `COc1nc2ccccc2cc1-c1cnc(C2CN(CC3CCOC3)CCN2C(=O)Cn2nc3ccccc3n2)[nH]1` (stereo not drawn), the EC50 is 1010 to 5000 nM.

For the compound `COc1ccc2nc(C)n(CC(=O)N3CCN(Cc4cnccn4)C[C@H]3c3ncc(-c4cc5ccccc5nc4OC)[nH]3)c2c1` [(S)-2-(6-methoxy-2-methyl-1H-benzo[d]imidazol-1-yl)-1-(2-(5-(2-methoxyquinolin-3-yl)-1H-imidazol-2-yl)-4-(pyrazin-2-ylmethyl)piperazin-1-yl)ethan-1-one], the EC50 is under 100 nM.

Consider `COc1ccc2nc(C(F)(F)F)n(CC(=O)N3C[C@H](NC4CCOC4)CC[C@H]3c3ncc(-c4cc5ccccc5nc4OC)[nH]3)c2c1` (stereo partly drawn) [2-(6-methoxy-2-(trifluoromethyl)-1H-benzo[d]imidazol-1-yl)-1-((2S,5R)-2-(5-(2-methoxyquinolin-3-yl)-1H-imidazol-2-yl)-5-((tetrahydrofuran-3-yl)amino)piperidin-1-yl)ethan-1-one], for which the concentration giving a half-maximal response (EC50) was under 100 nM.

As for `COc1nc2ccccc2cc1-c1cnc([C@@H]2CN(C3COC3)CCN2C(=O)Cn2c(C(F)(F)F)nc3ccccc32)[nH]1` [(S)-1-(2-(5-(2-methoxyquinolin-3-yl)-1H-imidazol-2-yl)-4-(oxetan-3-yl)piperazin-1-yl)-2-(2-(trifluoromethyl)-1H-benzo[d]imidazol-1-yl)ethan-1-one], the EC50 was under 100 nM.

Take `COc1ccc2[nH]c(C)c(CC(=O)N3CCN(C)CC3c3ncc(-c4ccccc4)[nH]3)c2c1` (stereo not drawn): the EC50 was in the range of 1010 to 5000 nM.

For `COc1ccc2nc(C)n(CC(=O)N3CCN(C4CCOC4)C[C@H]3c3ncc(-c4cc5ccccc5nc4OC)[nH]3)c2c1` (stereo partly drawn), the concentration giving a half-maximal response (EC50) lay within 100 to 500 nM.

On to `COc1nc2ccccc2cc1-c1cnc(C2CN(C(C)C)CCN2C(=O)Cc2ccccc2)[nH]1` (stereo not drawn), for which the concentration for a half-maximal effect (EC50) lay in the range of 1010 to 5000 nM.

For `COc1nc2ccccc2cc1-c1cnc(C2CN(CC3CCOC3)CCN2C(=O)Cc2c(C)[nH]c3ccccc23)[nH]1` (stereo not drawn), the EC50 lay within 100 to 500 nM.

Take `COc1nc2ccccc2cc1-c1cnc([C@@H]2CN(C[C@@H]3CCOC3)CCN2C(=O)Cn2c(C(F)(F)F)nc3ccccc32)[nH]1` (single isomer, unassigned): the EC50 was under 100 nM.

`CCC(=O)CCC(=O)N1CCN(C(=O)Cc2c(C)[nH]c3ccc(OC)cc23)C(c2ncc(-c3ccc4ccccc4c3)[nH]2)C1` (stereo not drawn): the EC50 was in the range of 100 to 500 nM.

As for `COc1ccc2nc(C(F)(F)F)n(CC(=O)N3CCN(CCc4cnoc4)C[C@H]3c3ncc(-c4cc5ccccc5nc4OC)[nH]3)c2c1` [(S)-1-(4-(2-(isoxazol-4-yl)ethyl)-2-(5-(2-methoxyquinolin-3-yl)-1H-imidazol-2-yl)piperazin-1-yl)-2-(6-methoxy-2-(trifluoromethyl)-1H-benzo[d]imidazol-1-yl)ethan-1-one], the EC50 is under 100 nM.

On to `COc1ccc2nc(C)n(CC(=O)N3CCN(CC4COC4)CCC3c3ncc(-c4cc5ccccc5nc4OC)[nH]3)c2c1` (stereo not drawn), for which the concentration giving a half-maximal response (EC50) was 510 to 1000 nM.

On to `COc1nc2ccccc2cc1-c1cnc(C2CN(C(=O)C3CCOC3)CCN2C(=O)Cc2c(C)[nH]c3ccc(F)cc23)[nH]1` (stereo not drawn) [2-(5-fluoro-2-methyl-1H-indol-3-yl)-1-(2-(5-(2-methoxyquinolin-3-yl)-1H-imidazol-2-yl)-4-(tetrahydrofuran-3-carbonyl)piperazin-1-yl) ethan-1-one], for which the EC50 was in the range of 1010 to 5000 nM.

Turning to `COc1ccc2c(c1)C(CC(=O)N1CCN(CC3CCOC3)CC1c1ncc(-c3ccc4ccccc4c3)[nH]1)C(=O)N2` (stereo not drawn), the EC50 was in the range of 1010 to 5000 nM.

As to `COc1ccc2nc(C(F)(F)F)n(CC(=O)N3CCN(C4CCC4)CCC3c3ncc(-c4cc5ccccc5nc4OC)[nH]3)c2c1` (stereo not drawn) [1-(4-cyclobutyl-7-(5-(2-methoxyquinolin-3-yl)-1H-imidazol-2-yl)-1,4-diazepan-1-yl)-2-(6-methoxy-2-(trifluoromethyl)-1H-benzo[d]imidazol-1-yl)ethan-1-one], the EC50 is under 100 nM.

Regarding `COc1nc2ccccc2cc1-c1cnc(C2CS(=O)(=O)CCN2C(=O)Cc2c(C)[nH]c3ccc(F)cc23)[nH]1` (stereo not drawn) [2-(5-fluoro-2-methyl-1H-indol-3-yl)-1-(3-(5-(2-methoxyquinolin-3-yl)-1H-imidazol-2-yl)-1,1-dioxidothiomorpholino)ethan-1-one], the EC50 was in the range of 100 to 500 nM.

On to `CCC(=O)CCCN1CCN(Cc2ccccc2)C(c2ncc(-c3ccc4ccccc4c3)[nH]2)C1` (stereo not drawn) [6-(4-benzyl-3-(5-(naphthalen-2-yl)-1H-imidazol-2-yl)piperazin-1-yl)hexan-3-one], for which the EC50 fell in the range of 1010 to 5000 nM.

For the compound `COc1ccc2nc(C(F)(F)F)n(CC(=O)N3CC[C@@H](NCc4nccs4)C[C@H]3c3ncc(-c4cc5ccccc5nc4OC)[nH]3)c2c1`, the EC50 lay in the range of 100 to 500 nM.
